pIC50: −log10 of the molar value.
Legend:
[1] = test system: HCV IRES-mediated translation; assay: in vitro translation in RRL, HCV IRES cistron; format: biochemical, rabbit; settings: 100 nM
Description: (§1) In vitro Translation and Transcription. pSP/(CAG)33/FF/HCV/Ren·pA51 and pKS/FF/EMC/Ren were linearized by BamHI, then purified by phenol:chloroform extraction and ethanol precipitation, and dissolved in water. pSP/(CAG)33/FF/HCV/Ren·A51 and pKS/FF/EMC/Ren were individually transcribed using a large scale RNA production system in the presence of m7Gppp cap analog followed by incubation with DNase as described by the manufacturer. Resulting RNA was purified using a kit as described by the manufacturer. Translation was performed using a rabbit reticulocyte lysate system as per instructions. Briefly, 200 ng of purified RNA was combined in a 20 μl reaction containing 10 μl RRL, 0.2 μl each of minus Met and minus Leu amino acid mixtures, 70 mM KCl, 2 mM DTT, 1× translation buffer, and 10 units of RNasin. Compounds or DMSO were added to a final DMSO concentration of 2%. Reactions were incubated at 30° C. for 1.5 h, then 5 μl of the reaction mixture was assayed for luciferase activity as per instructions of luciferas reporter assay system.

[2] = test system: EMCV IRES mediated initiation; assay: in vitro translation in RRL, EMCV IRES cistron; format: biochemical, rabbit; settings: EMCV IRES bicistronic reporter
Description: as §1

eIF4A-eIF4G = target: T1, eIF4A-eIF4G (Homo sapiens, UniProt P60842); assay: 6XHis-eIF4AI pulldown, eIF4A-eIF4G interaction; format: binding; settings: HeLa lysate; PatA at 100 μM
T1 construct: The entire ORF of human eIF4AI was ligated in-frame into the BamHI and HindIII sites of the pET-28a expression vector; made in house; host or cells: bait from E. coli BL21(DE3); eIF4G endogenous in HeLa lysate
T1 sequence (P60842 whole entry): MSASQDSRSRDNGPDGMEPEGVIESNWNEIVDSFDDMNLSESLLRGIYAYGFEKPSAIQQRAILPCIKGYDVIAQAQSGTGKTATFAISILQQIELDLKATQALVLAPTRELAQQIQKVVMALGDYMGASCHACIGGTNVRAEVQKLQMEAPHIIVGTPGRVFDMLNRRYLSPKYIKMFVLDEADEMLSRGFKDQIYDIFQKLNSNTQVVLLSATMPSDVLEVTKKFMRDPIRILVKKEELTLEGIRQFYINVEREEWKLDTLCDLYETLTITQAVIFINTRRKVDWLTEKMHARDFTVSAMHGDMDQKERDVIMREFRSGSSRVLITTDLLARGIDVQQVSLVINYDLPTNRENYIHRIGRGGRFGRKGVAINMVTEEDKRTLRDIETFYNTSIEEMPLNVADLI
Description: 6XHis-eIF4AI pulldown, Co-immunoprecipitation, and m^7GTP-Sepharose pulldown. For 6XHis-eIF4AI pulldowns, HeLa lysates were prepared as described above. Equal aliquots (200 μl) of lysate were incubated with PatA analogs or DMSO and 8.5 μg of 6XHis-eIF4AI overnight at 4° C., followed by addition of Ni-NTA resin for 1 h, then resin was washed with 3 ml buffer, and boiled in SDS-PAGE loading buffer followed by SDS-PAGE and immunoblotting with indicated antibodies. For co-immunoprecipitation, 293T cells with vector control or pcDNA3-Flag-4B lysates were prepared by pipetting in: 20 mM HEPES, pH 7.4, 100 mM KCl, 0.5% Triton-X-100, 20% glycerol, protease inhibitor and 15 μg/ml RNAse A followed by clearing at 13 000 g (10 min). For DMDA-PatA treated samples, lysis and wash buffers also contained 100 nM DMDA-PatA. Anti-Flag antibody was incubated overnight at 4° C., followed by addition of Protein G beads for 4 h. Beads were washed 3× with 500 μl buffer, boiled in SDS-PAGE loading buffer followed by SDS-PAGE and immunoblotting. m^7GTP-Sepharose was performed as described (Yoder-Hill et al., 1993) with modifications. 30 μl RRL was incubated with DMSO or DMDA-PatA at room temperature for 30 min, diluted with buffer supplemented with DMSO or DMDA-PatA (20 nM), then combined with 50 μl beads for 3 h at 4° C. followed by 4 washes with 1 ml buffer. […]

HeLa cells = format: cell-based
[3] = test system: mixed lymphocyte reaction; settings: read-out: IC50 in MLR (mixed lymphocyte reaction) assay; cited from earlier work
eIF4AI [4] = target: T2, eIF4AI (Homo sapiens, UniProt P60842); assay: RNA-dependent ATPase activity of recombinant 6XHis-eIF4AI; format: biochemical; settings: saturating poly(U) RNA
T2 construct: The entire ORF of human eIF4AI was ligated in-frame into the BamHI and HindIII sites of the pET-28a expression vector; 6XHis (N); made in house; host or cells: E. coli BL21(DE3)
T2 sequence (P60842 whole entry): as above
Description: (§2) Recombinant proteins. The entire ORF of human eIF4AI was ligated in-frame into the BamHI and HindIII sites of the pET-28a expression vector after PCR amplification from HeLa cells. Protein was produced in BL21(DE3) E. coli cultured in LB medium by induction with 1 mM IPTG for 6 h at 37° C. Cells were lysed by sonication and protein was purified using Ni-NTA resin as described by the manufacturer. For pET(His6-eIF4B), induction conditions were for 72 h at 16° C. Purification included a 1 ml Heparin column with a linear KCl gradient (50-500 mM).
(§3) ATPase and Helicase. ATPase activity was performed as described (Korneeva et al., 2005) with minor modifications. Reactions contained 2.5% DMSO, 6XHis-eIF4AI concentration was 0.56 μM, and reaction time was 10 min at 37° C. in buffer: 20 mM Tris-HCl, pH 7.5, 0.5 mM MgCl2, 100 mM KCl, 2 mM DTT, 0.1% (v/v) Tween 20, 10% (v/v) glycerol, 1 mg/ml BSA, and reactions were supplemented with 3-5 μCi of [γ-^32P]-ATP (6000 Ci/mmol). Saturating poly(U) concentrations were 1239 μM (nucleotides/20). Released phosphate was visualized on 15% native TBE polyacrylamide gels followed by autoradiography of wet gels (30 min exposure). Film was aligned with gels and spots were excised and ^32P levels were quantified by scintillation counting. Km and Vmax were determined by curve fitting. […]

eIF4AI [5] = target: T2, eIF4AI; assay: ATP-dependent RNA helicase activity of 6XHis-eIF4AI; format: biochemical
Description: as §2, §3

## CC(/C=C/C(C)=C/[C@@H]1Cc2nc(cs2)[C@@H](C)C[C@@H](N)CC(=O)O[C@@H](C)C/C(C)=C/C=C\C(=O)O1)=C\CN(C)C [Pat A (1), Pateamine A]
[1]
  inhibition of HCV IRES-mediated (eIF4A-independent) translation: not inhibited
[2]
  pIC50: ~7.27
eIF4A-eIF4G
  effect on eIF4A-eIF4G interaction: disrupted
HeLa cells
  stress granule formation: capable of inducing stress granule formation
[3]
  pIC50: 8.59

## CC(/C=C/C(C)=C/[C@@H]1Cc2nc(cs2)CCCCC(=O)O[C@@H](C)C/C(C)=C/C=C\C(=O)O1)=C\CN(C)C [compound 3, desmethyl, desamino-pateamine A]
eIF4AI [4]
  effect on Km ATP: significant decrease
  effect on kcat: marginally increased
eIF4AI [5]; in the presence of 6XHis-4B
  effect on helicase activity of eIF4A and 4B: further stimulated
eIF4AI [5]; with ATP
  effect on ATP-dependent RNA helicase activity of eIF4AI: dramatically increased

From US8841285B2, “Potent immunosuppressive agents, derivatives and uses” (priority 2002, dated 2014)
